Results on 68 sequences are retold here after the supplement of paper PMC11208160.

This data set in a line: recombinant UMI read abundance after kanamycin selection (control-corrected) (log10(CPM+1)); higher = more efficient recombination; extreme values may be limits of the assay; sequences stand for … in AGTGCAGAGAAAATCGGCCAGTTTTCTCTGCCTGCAGTCCGCATGCCGTGGGACCCCTTGGGTTCTAACCTGTTGCCTAGATTTATGCAGCGGACTGCCTTTCTCCCAAAGTGATAAACCGG…AGGTTGGTTTCACT; site = the 11-nt donor. The essentials: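 For the IS621 bridge recombinase, a pooled Escherichia coli screen tested donor and donor-binding-loop pairs. Cells received the pair library together with a target plasmid encoding a fixed target and T7-inducible recombinase, then went onto IPTG (0.07 mM) plus kanamycin or unselected plates in duplicate. After PCR across the donor–target junction and sequencing, recombinant UMI counts were normalized to CPM, averaged, and scaled by control-derived factors. Each value is given as log10(CPM+1).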
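Further: IS621 bridge recombinase in Escherichia coli cells against a fixed T5 target plasmid.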

As to “TTCCTGTCATGGACCGGTTTTCCCGGTAATCCGTATTTGAA (site TTCCTGTCTTT)”, the “recombinant UMI read abundance (log10)” value came to 0.0685.

For “TTCGCCACATGGACCGGTTTTCCCGGTAATCCGTATTTGAG (site TTCGCCACTCT)”, the “recombinant UMI read abundance (log10)” value was 0.

“TTCGCTACATGGACCGGTTTTCCCGGTAATCCGTATTTGGC (site TTCGCTACTGC)”: the “recombinant UMI read abundance (log10)” value stood at 0.

“TTCGGATCATGGACCGGTTTTCCCGGTAATCCGTATTTGCT (site TTCGGATCTAG)”: the “recombinant UMI read abundance (log10)” value is 0.

As for “TTCGGGCCATGGACCGGTTTTCCCGGTAATCCGTATTTGCC (site TTCGGGCCTGG)”, the “recombinant UMI read abundance (log10)” value is 0.

Turning to “TTCGTATCATGGACCGGTTTTCCCGGTAATCCGTATTTGAC (site CTAGTATCTGT)”, the “recombinant UMI read abundance (log10)” value stood at 0.

For the sequence “TTCGTATCATGGACCGGTTTTCCCGGTAATCCGTATTTGAC (site TTCGTATCTGT)”, the “recombinant UMI read abundance (log10)” value was found to be 0.

Take “TTCTGAGCATGGACCGGTTTTCCCGGTAATCCGTATTTGCT (site TTCTGAGCTAG)”: the “recombinant UMI read abundance (log10)” value amounted to 0.802.

On to “TTCTTCGCATGGACCGGTTTTCCCGGTAATCCGTATTTGCG (site TTCTTCGCTCG)”, for which the “recombinant UMI read abundance (log10)” value amounted to 0.00387.

As to “TTGAATCCATGGACCGGTTTTCCCGGTAATCCGTATTTGTT (site CGGAATCCTAA)”, the “recombinant UMI read abundance (log10)” value is 0.

As to “TTGAATCCATGGACCGGTTTTCCCGGTAATCCGTATTTGTT (site TTGAATCCTAA)”, the “recombinant UMI read abundance (log10)” value was determined as 0.901.

On to “TTGAATTCATGGACCGGTTTTCCCGGTAATCCGTATTTGTT (site TTGAATTCTAA)”, for which the “recombinant UMI read abundance (log10)” value was 0.

In the case of “TTGCACGCATGGACCGGTTTTCCCGGTAATCCGTATTTGGT (site TTGCACGCTAC)”, the “recombinant UMI read abundance (log10)” value was determined as 0.647.

In the case of “TTGCCGTCATGGACCGGTTTTCCCGGTAATCCGTATTTGGT (site TTGCCGTCTAC)”, the “recombinant UMI read abundance (log10)” value turned out to be 0.144.

Turning to “TTGCCTTCATGGACCGGTTTTCCCGGTAATCCGTATTTGGT (site TAGCCTTCTAC)”, the “recombinant UMI read abundance (log10)” value was 0.0133.

Regarding “TTGCCTTCATGGACCGGTTTTCCCGGTAATCCGTATTTGGT (site TCGCCTTCTAC)”, the “recombinant UMI read abundance (log10)” value was 0.00778.

Take “TTGCCTTCATGGACCGGTTTTCCCGGTAATCCGTATTTGGT (site TGGCCTTCTAC)”: the “recombinant UMI read abundance (log10)” value is 0.0098.

Take “TTGCCTTCATGGACCGGTTTTCCCGGTAATCCGTATTTGGT (site TTGCCTTCTAC)”: the “recombinant UMI read abundance (log10)” value was found to be 0.00638.

For “TTGCGGGCATGGACCGGTTTTCCCGGTAATCCGTATTTGGA (site TTGCGGGCTTC)”, the “recombinant UMI read abundance (log10)” value came out at 0.00996.

As to “TTGCGGGCATGGACCGGTTTTCCCGGTAATCCGTATTTGGG (site TTGCGGGCTCC)”, the “recombinant UMI read abundance (log10)” value was determined as 0.00376.

Turning to “TTGCGTTCATGGACCGGTTTTCCCGGTAATCCGTATTTGTC (site TTGCGTTCTGA)”, the “recombinant UMI read abundance (log10)” value stood at 0.

Take “TTGCTGGCATGGACCGGTTTTCCCGGTAATCCGTATTTGAG (site TTGCTGGCTCT)”: the “recombinant UMI read abundance (log10)” value amounted to 0.

Regarding “TTGCTTACATGGACCGGTTTTCCCGGTAATCCGTATTTGAC (site TTGCTTACTGT)”, the “recombinant UMI read abundance (log10)” value was 0.

For the sequence “TTGGAATCATGGACCGGTTTTCCCGGTAATCCGTATTTGCG (site TAGGAATCTCG)”, the “recombinant UMI read abundance (log10)” value turned out to be 1.81.

Regarding “TTGGAATCATGGACCGGTTTTCCCGGTAATCCGTATTTGCG (site TCGGAATCTCG)”, the “recombinant UMI read abundance (log10)” value worked out at 0.968.

Turning to “TTGGAATCATGGACCGGTTTTCCCGGTAATCCGTATTTGCG (site TGGGAATCTCG)”, the “recombinant UMI read abundance (log10)” value came out at 0.00536.

With “TTGGAATCATGGACCGGTTTTCCCGGTAATCCGTATTTGCG (site TTGGAATCTCG)”, the “recombinant UMI read abundance (log10)” value worked out at 2.27.

Take “TTGGCAACATGGACCGGTTTTCCCGGTAATCCGTATTTGCT (site TTGGCAACTAG)”: the “recombinant UMI read abundance (log10)” value is 0.0704.

Turning to “TTGGCTGCATGGACCGGTTTTCCCGGTAATCCGTATTTGTG (site TTAGCTGCTCA)”, the “recombinant UMI read abundance (log10)” value amounted to 0.0254.

For “TTGGCTGCATGGACCGGTTTTCCCGGTAATCCGTATTTGTG (site TTCGCTGCTCA)”, the “recombinant UMI read abundance (log10)” value is 0.0142.

Consider “TTGGCTGCATGGACCGGTTTTCCCGGTAATCCGTATTTGTG (site TTGGCTGCTCA)”, for which the “recombinant UMI read abundance (log10)” value was determined as 0.00853.

Regarding “TTGGCTGCATGGACCGGTTTTCCCGGTAATCCGTATTTGTG (site TTTGCTGCTCA)”, the “recombinant UMI read abundance (log10)” value was found to be 0.0121.

As to “TTGGTAACATGGACCGGTTTTCCCGGTAATCCGTATTTGAG (site TTGGTAACTCT)”, the “recombinant UMI read abundance (log10)” value was 0.734.

As to “TTGGTACCATGGACCGGTTTTCCCGGTAATCCGTATTTGCA (site TTGGTACCTTG)”, the “recombinant UMI read abundance (log10)” value came out at 0.00424.

On to “TTGGTTCCATGGACCGGTTTTCCCGGTAATCCGTATTTGTG (site TTGGTTCCTCA)”, for which the “recombinant UMI read abundance (log10)” value was found to be 0.0354.

On to “TTGTAAGCATGGACCGGTTTTCCCGGTAATCCGTATTTGCA (site TTGTAAGCTTG)”, for which the “recombinant UMI read abundance (log10)” value was 1.17.

As for “TTGTCGACATGGACCGGTTTTCCCGGTAATCCGTATTTGTC (site TTGTCGACTGA)”, the “recombinant UMI read abundance (log10)” value came out at 0.433.

Turning to “TTGTGCTCATGGACCGGTTTTCCCGGTAATCCGTATTTGGG (site TTGTGCTCTCC)”, the “recombinant UMI read abundance (log10)” value came to 0.0159.

Turning to “TTTAGCCCATGGACCGGTTTTCCCGGTAATCCGTATTTGCT (site TTTAGCCCTAG)”, the “recombinant UMI read abundance (log10)” value came to 0.

Consider “TTTATAGCATGGACCGGTTTTCCCGGTAATCCGTATTTGCG (site TTTATAGCTCG)”, for which the “recombinant UMI read abundance (log10)” value is 0.232.

Take “TTTCACACATGGACCGGTTTTCCCGGTAATCCGTATTTGGA (site TTTCACACTTC)”: the “recombinant UMI read abundance (log10)” value was determined as 0.0104.

As to “TTTCACGCATGGACCGGTTTTCCCGGTAATCCGTATTTGGT (site TTTCACGCTAC)”, the “recombinant UMI read abundance (log10)” value worked out at 0.0228.

“TTTCCTCCATGGACCGGTTTTCCCGGTAATCCGTATTTGCG (site TTTCCTCCTCG)”: the “recombinant UMI read abundance (log10)” value worked out at 0.0281.

With “TTTCGAGCATGGACCGGTTTTCCCGGTAATCCGTATTTGCA (site ATTCGAGCTTG)”, the “recombinant UMI read abundance (log10)” value amounted to 0.411.

Take “TTTCGAGCATGGACCGGTTTTCCCGGTAATCCGTATTTGCA (site CTTCGAGCTTG)”: the “recombinant UMI read abundance (log10)” value is 0.13.

In the case of “TTTCGAGCATGGACCGGTTTTCCCGGTAATCCGTATTTGCA (site GTTCGAGCTTG)”, the “recombinant UMI read abundance (log10)” value stood at 0.969.

On to “TTTCGAGCATGGACCGGTTTTCCCGGTAATCCGTATTTGCA (site TTTCGAGCTTG)”, for which the “recombinant UMI read abundance (log10)” value came to 1.31.

As for “TTTCGCACATGGACCGGTTTTCCCGGTAATCCGTATTTGCG (site TTTCGCACTCG)”, the “recombinant UMI read abundance (log10)” value was 0.00398.

For “TTTCGCACATGGACCGGTTTTCCCGGTAATCCGTATTTGTC (site TTTCGCACTGA)”, the “recombinant UMI read abundance (log10)” value stood at 0.308.

Regarding “TTTCGCCCATGGACCGGTTTTCCCGGTAATCCGTATTTGTG (site TTTCGCCCTCA)”, the “recombinant UMI read abundance (log10)” value came out at 0.0225.

As to “TTTGAATCATGGACCGGTTTTCCCGGTAATCCGTATTTGAC (site TTTGAATCTGT)”, the “recombinant UMI read abundance (log10)” value was 0.

“TTTGAGACATGGACCGGTTTTCCCGGTAATCCGTATTTGGT (site ATTGAGACTAC)”: the “recombinant UMI read abundance (log10)” value amounted to 0.0113.

As for “TTTGAGACATGGACCGGTTTTCCCGGTAATCCGTATTTGGT (site CTTGAGACTAC)”, the “recombinant UMI read abundance (log10)” value was determined as 0.0146.

Regarding “TTTGAGACATGGACCGGTTTTCCCGGTAATCCGTATTTGGT (site GTTGAGACTAC)”, the “recombinant UMI read abundance (log10)” value was 0.0113.

Take “TTTGAGACATGGACCGGTTTTCCCGGTAATCCGTATTTGGT (site TTTGAGACTAC)”: the “recombinant UMI read abundance (log10)” value was 0.511.

Regarding “TTTGCGGCATGGACCGGTTTTCCCGGTAATCCGTATTTGCC (site TTTGCGGCTAG)”, the “recombinant UMI read abundance (log10)” value was 0.0224.

For “TTTGCGGCATGGACCGGTTTTCCCGGTAATCCGTATTTGCC (site TTTGCGGCTCG)”, the “recombinant UMI read abundance (log10)” value was found to be 0.0088.

“TTTGCGGCATGGACCGGTTTTCCCGGTAATCCGTATTTGCC (site TTTGCGGCTGG)”: the “recombinant UMI read abundance (log10)” value is 0.

Regarding “TTTGCGGCATGGACCGGTTTTCCCGGTAATCCGTATTTGCC (site TTTGCGGCTTG)”, the “recombinant UMI read abundance (log10)” value is 0.0109.

“TTTGCGGCATGGACCGGTTTTCCCGGTAATCCGTATTTGCG (site TTTGCGGCTAG)”: the “recombinant UMI read abundance (log10)” value was determined as 0.00371.

As to “TTTGCGGCATGGACCGGTTTTCCCGGTAATCCGTATTTGCG (site TTTGCGGCTCG)”, the “recombinant UMI read abundance (log10)” value is 0.0191.

As to “TTTGCGGCATGGACCGGTTTTCCCGGTAATCCGTATTTGCG (site TTTGCGGCTGG)”, the “recombinant UMI read abundance (log10)” value is 0.

Consider “TTTGCGGCATGGACCGGTTTTCCCGGTAATCCGTATTTGCG (site TTTGCGGCTTG)”, for which the “recombinant UMI read abundance (log10)” value stood at 0.0091.

On to “TTTGCTGCATGGACCGGTTTTCCCGGTAATCCGTATTTGCT (site TTTGCAGCTAG)”, for which the “recombinant UMI read abundance (log10)” value was determined as 0.

As to “TTTGCTGCATGGACCGGTTTTCCCGGTAATCCGTATTTGCT (site TTTGCCGCTAG)”, the “recombinant UMI read abundance (log10)” value was 0.0567.

Consider “TTTGCTGCATGGACCGGTTTTCCCGGTAATCCGTATTTGCT (site TTTGCGGCTAG)”, for which the “recombinant UMI read abundance (log10)” value was determined as 0.

As for “TTTGCTGCATGGACCGGTTTTCCCGGTAATCCGTATTTGCT (site TTTGCTGCTAG)”, the “recombinant UMI read abundance (log10)” value turned out to be 0.00917.

For the sequence “TTTGTCACATGGACCGGTTTTCCCGGTAATCCGTATTTGGA (site TTTGTCACTTC)”, the “recombinant UMI read abundance (log10)” value worked out at 0.187.
